Data set [1] in a line: hygroscopicity (salt screening). It counts as physicochemical.
Data set [2] in a line: water solubility (salt screening). It counts as physicochemical.

Consider `O=C(N[C@@H]1C2CCN(CC2)[C@H]1Cc1cccnc1)c1cc2ccccc2o1.O=P(O)(O)O` [phosphoric acid salt], for which the hygroscopicity entry in data set [1] is listed as “low”.

For the compound `Cc1ccc(S(=O)(=O)O)cc1.O=C(N[C@@H]1C2CCN(CC2)[C@H]1Cc1cccnc1)c1cc2ccccc2o1` [p-toluenesulfonic acid salt, (2S,3R)—N-(2-((3-pyridinyl)methyl)-1-azabicyclo[2.2.2]oct-3-yl)benzofuran-2-carboxamide p-toluenesulfonate], the hygroscopicity result in data set [1] is listed as “low”. The water solubility result in data set [2] is “good”.

Values taken from US20140024638A1, “TREATMENT OF COGNITIVE DYSFUNCTION IN SCHIZOPHRENIA” (TARGACEPT, INC., priority 2011, published 2014).
